Broadly, the EC50 is the concentration giving half of the maximal effect.

What all share (format): biochemical
For assay [1], the target named is T1, JAK3 (catalytic domain, His-tag) (Homo sapiens, UniProt P52333).
T1 construct: All four purified enzymes contain only the catalytic domain; His (N); purchased Carna Biosciences, Inc; host or cells: baculovirus expression system
The experiment in a line: JAK kinase assay (HTRF, phosphorylation of TK substrate-biotin), JAK3. The note with it: HTRF assay, ATP at Km (2 μM); read-out: JAK3 kinase inhibitory activity (EC50 indicator). A digest of the protocol: (§1)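 Baculovirus-expressed catalytic domains phosphorylated 1 μM TK substrate-biotin in 50 mM Hepes pH 7.0 with ATP at Km (JAK1 7 μM, JAK2 4 μM, JAK3 2 μM, TYK2 13 μM) for 20-30 min at RT. EDTA/KF stop, streptavidin-XL665 plus cryptate antibody overnight; HTRF signal gave EC50.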
In general terms: In TR-FRET formats the signal depends on donor and acceptor labels being close together.

Assay [2] deals with T2, JAK2 (catalytic domain, His-tag) (Homo sapiens, UniProt O60674).
T2 construct: All four purified enzymes contain only the catalytic domain; His (N); purchased Carna Biosciences, Inc; host or cells: baculovirus expression system
T2 sequence (O60674 849-1124 limits assumed): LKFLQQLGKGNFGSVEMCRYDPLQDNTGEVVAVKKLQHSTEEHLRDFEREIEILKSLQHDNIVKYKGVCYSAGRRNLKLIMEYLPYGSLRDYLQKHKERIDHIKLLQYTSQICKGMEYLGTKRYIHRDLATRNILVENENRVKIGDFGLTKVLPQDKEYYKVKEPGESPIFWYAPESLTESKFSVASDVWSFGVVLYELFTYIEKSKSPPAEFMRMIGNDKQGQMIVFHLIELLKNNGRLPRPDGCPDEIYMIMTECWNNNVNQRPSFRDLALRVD
The experiment in a line: JAK kinase assay (HTRF, phosphorylation of TK substrate-biotin), JAK2. The settings on record: HTRF assay, ATP at Km (4 μM); read-out: JAK2 kinase inhibitory activity (EC50 indicator). A digest of the protocol: as §1

In assay [3] the target is T3, TYK2 (aa 871-1187, catalytic domain, GST-tag) (Homo sapiens, UniProt P29597).
T3 construct: JAK1 (aa 850-1154) and TYK2 (aa 871-1187) are expressed with an N-terminally fused GST-tag; GST (N); purchased Carna Biosciences, Inc; host or cells: baculovirus expression system
T3 sequence (P29597 871-1187): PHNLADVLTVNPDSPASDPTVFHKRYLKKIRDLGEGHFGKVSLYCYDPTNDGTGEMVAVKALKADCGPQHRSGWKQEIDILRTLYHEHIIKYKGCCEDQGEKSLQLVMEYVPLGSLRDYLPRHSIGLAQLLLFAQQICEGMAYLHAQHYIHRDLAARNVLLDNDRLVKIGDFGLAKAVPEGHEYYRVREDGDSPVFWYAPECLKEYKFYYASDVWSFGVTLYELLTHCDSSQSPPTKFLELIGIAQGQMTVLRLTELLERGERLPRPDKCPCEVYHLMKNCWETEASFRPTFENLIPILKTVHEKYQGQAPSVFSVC
The experiment in a line: JAK kinase assay (HTRF, phosphorylation of TK substrate-biotin), TYK2. The settings on record: HTRF assay, ATP at Km (13 μM); read-out: TYK2 kinase inhibitory activity (EC50 indicator). A digest of the protocol: as §1

For assay [4], the target named is T4, JAK1 (aa 850-1154, catalytic domain, GST-tag) (Homo sapiens, UniProt P23458).
T4 construct: JAK1 (aa 850-1154) and TYK2 (aa 871-1187) are expressed with an N-terminally fused GST-tag; GST (N); purchased Carna Biosciences, Inc; host or cells: baculovirus expression system
T4 sequence (P23458 850-1154): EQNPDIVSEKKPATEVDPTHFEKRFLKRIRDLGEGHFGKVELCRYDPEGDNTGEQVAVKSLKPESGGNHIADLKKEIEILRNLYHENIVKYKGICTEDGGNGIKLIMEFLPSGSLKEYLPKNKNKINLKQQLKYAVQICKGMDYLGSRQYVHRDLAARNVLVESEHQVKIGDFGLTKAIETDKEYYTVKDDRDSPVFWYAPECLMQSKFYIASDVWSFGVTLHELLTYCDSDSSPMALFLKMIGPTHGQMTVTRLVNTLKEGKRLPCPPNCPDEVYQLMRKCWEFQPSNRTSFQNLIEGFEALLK
Kind of assay: JAK kinase assay (HTRF, phosphorylation of TK substrate-biotin), JAK1. The note with it: HTRF assay, ATP at Km (7 μM); read-out: JAK1 kinase inhibitory activity (EC50 indicator). A digest of the protocol: as §1

T1 sequence (P52333 822-1111 limits assumed): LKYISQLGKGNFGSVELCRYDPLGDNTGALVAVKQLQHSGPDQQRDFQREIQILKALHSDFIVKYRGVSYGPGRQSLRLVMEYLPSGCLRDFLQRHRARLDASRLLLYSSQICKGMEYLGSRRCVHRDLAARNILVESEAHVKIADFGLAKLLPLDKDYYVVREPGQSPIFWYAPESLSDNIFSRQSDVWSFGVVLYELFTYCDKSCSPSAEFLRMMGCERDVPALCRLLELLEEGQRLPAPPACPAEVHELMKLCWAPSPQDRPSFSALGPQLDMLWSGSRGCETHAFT

For `N#CCCCC(=O)N1[C@@H]2CC[C@@H]1CN(c1ncnc3[nH]ccc13)C2` [Example 352, 5-Oxo-5-[3-(7H-pyrrolo[2,3-d]pyrimidin-4-yl)-3,8-diaza-bicyclo[3.2.1]oct-8-yl]-pentanenitrile], the EC50 is 0.1 to 0.5 µM in assay [1], below 0.1 µM in assay [2], above 0.5 µM in assay [3] and below 0.1 µM in assay [4].
As for `NS(=O)(=O)c1ccc(C(=O)N2[C@@H]3CC[C@@H]2CN(c2ncnc4[nH]ccc24)C3)cc1` [Example 353, 4-[3-(7H-Pyrrolo[2,3-d]pyrimidin-4-yl)-3,8-diaza-bicyclo[3.2.1]octane-8-carbonyl]-benzenesulfonamide], the EC50 in assay [1], in assay [2], in assay [3] and in assay [4] was below 0.1 µM throughout.
As to `CC(=O)Nc1ccc(C(=O)N2[C@@H]3CC[C@@H]2CN(c2ncnc4[nH]ccc24)C3)cc1` [Example 354, N-{4-[3-(7H-Pyrrolo[2,3-d]pyrimidin-4-yl)-3,8-diaza-bicyclo[3.2.1]octane-8-carbonyl]-phenyl}-acetamide], the EC50 in assay [1] was 0.1 to 0.5 µM; in assay [2] it was below 0.1 µM; in assay [3] it was above 0.5 µM; in assay [4] it was below 0.1 µM.
In the case of `O=C(c1ccc2[nH]c(=O)ccc2c1)N1[C@@H]2CC[C@@H]1CN(c1ncnc3[nH]ccc13)C2` [Example 355, 6-[3-(7H-Pyrrolo[2,3-d]pyrimidin-4-yl)-3,8-diaza-bicyclo[3.2.1]octane-8-carbonyl]-1H-quinolin-2-one], the EC50 in assay [1] was 0.1 to 0.5 µM; in assay [2] it was below 0.1 µM; in assay [3], above 0.5 µM; in assay [4] it was below 0.1 µM.
On to `CS(=O)(=O)c1ccc(C(=O)N2[C@@H]3CC[C@@H]2CN(c2ncnc4[nH]ccc24)C3)cc1` [Example 356, (4-Methanesulfonyl-phenyl)-[3-(7H-pyrrolo[2,3-d]pyrimidin-4-yl)-3,8-diaza-bicyclo[3.2.1]oct-8-yl]-methanone], for which the EC50 is 0.1 to 0.5 µM in assay [1], below 0.1 µM in assay [2], above 0.5 µM in assay [3] and below 0.1 µM in assay [4].
Turning to `O=C(c1ccc2cc[nH]c2c1)N1[C@@H]2CC[C@@H]1CN(c1ncnc3[nH]ccc13)C2` [Example 357, (1H-Indol-6-yl)-[3-(7H-pyrrolo[2,3-d]pyrimidin-4-yl)-3,8-diaza-bicyclo[3.2.1]oct-8-yl]-methanone], the EC50 in assay [1] is below 0.1 µM; in assay [2] it was below 0.1 µM; in assay [3], 0.1 to 0.5 µM; in assay [4], below 0.1 µM.
`NC(=O)c1ccc(C(=O)N2[C@@H]3CC[C@@H]2CN(c2ncnc4[nH]ccc24)C3)cc1` [Example 358, 4-[3-(7H-Pyrrolo[2,3-d]pyrimidin-4-yl)-3,8-diaza-bicyclo[3.2.1]octane-8-carbonyl]-benzamide]: the EC50 in assay [1] was 0.1 to 0.5 µM; in assay [2], below 0.1 µM; in assay [3], 0.1 to 0.5 µM; in assay [4], below 0.1 µM.
`O=C(c1cccc2cc(O)ccc12)N1[C@@H]2CC[C@@H]1CN(c1ncnc3[nH]ccc13)C2` [Example 359, (6-Hydroxy-naphthalen-1-yl)-[3-(7H-pyrrolo[2,3-d]pyrimidin-4-yl)-3,8-diaza-bicyclo[3.2.1]oct-8-yl]-methanone]: the EC50 in assay [1] was below 0.1 µM; in assay [2] it was below 0.1 µM; in assay [3] it was 0.1 to 0.5 µM; in assay [4], below 0.1 µM.
For `O=C(c1nsc2cc(Br)ccc12)N1[C@@H]2CC[C@@H]1CN(c1ncnc3[nH]ccc13)C2` [Example 360, (6-Bromo-benzo[d]isothiazol-3-yl)-[3-(7H-pyrrolo[2,3-d]pyrimidin-4-yl)-3,8-diaza-bicyclo[3.2.1]oct-8-yl]-methanone], the EC50 in assay [1] is 0.1 to 0.5 µM; in assay [2], 0.1 to 0.5 µM; in assay [3], above 0.5 µM; in assay [4], 0.1 to 0.5 µM.

Values taken from US9346809B2 (LEO PHARMA A/S, priority 2009, dated 2016).
